The source of these data is patent US8410302B2, “Methoxyimino compounds and fungicide composition comprising same” (Kyung Nong Corporation, priority 2007, dated 2013).

The test system of one experiment is Puccinia recondita. Briefly: Fungicidal activity against wheat leaf rust (WLR) disease, control value. The class given is in vivo. Particulars: wheat leaf rust; for pest or weed control at 2 ppm / pest or weed control at 10 ppm / pest or weed control at 50 ppm / pest or weed control at 100 ppm: read-out: WLR control value (C.V.).
For a further experiment, the system named is Erysiphae graminis. The experiment in a line: Fungicidal activity against barley powdery mildew (BPM) disease, control value. The experiment is classed as in vivo. Particulars: barley powdery mildew; for pest or weed control at 2 ppm / pest or weed control at 10 ppm / pest or weed control at 50 ppm / pest or weed control at 100 ppm: Hordeum vulgare, 168 h, read-out: BPM control value (C.V.).

Experiment [1] deals with Pyricularia oryzae Carvara KA301. The experiment in a line: whole plant or invertebrate. The experiment is classed as in vivo. Particulars: for RCB control value (C.V.): rice blast; for pest or weed control at 2 ppm / pest or weed control at 10 ppm / pest or weed control at 50 ppm / pest or weed control at 100 ppm: Pyricularia oryzae, read-out: RCB control value (C.V.).
For a further experiment, the system named is Phytophthora infestans. Briefly: whole plant or invertebrate. The class given is in vivo. Particulars: for TLB control value (C.V.): tomato late blight; for pest or weed control at 2 ppm / pest or weed control at 10 ppm / pest or weed control at 50 ppm / pest or weed control at 100 ppm: Phytophthora infestans, in Solanum lycopersicum, read-out: TLB control value (C.V.).

Another experiment has as its system Botrytis cinerae. The experiment in a line: Fungicidal activity against cucumber gray mold rot (CGM) disease, control value. Particulars: cucumber gray mold rot; for CGM control value (C.V.) / pest or weed control at 100 ppm: 100 ppm. The experiment is classed as in vivo.
The subject of the next experiment is Rhizoctonia solani AG-1. Briefly: Fungicidal activity against rice sheath blight (RSB) disease, control value. Particulars: for RSB control value (C.V.): rice sheath blight; for pest or weed control at 2 ppm / pest or weed control at 10 ppm / pest or weed control at 50 ppm / pest or weed control at 100 ppm: Rhizoctonia solani, AG1, in Oryza sativa, read-out: RSB control value (C.V.).

[2] abbreviates: Botrytis, read-out: CGM control value (C.V.).

Turning to `CNC(=O)/C(=N/OC)c1ccccc1CON=C(C)c1cccc(C=C(Cl)Br)c1` [Example 36, (E)-2-[[[[[2-[3-(2-bromo-2-chlorovinyl)phenyl](1-methyl)methylidene]amino]oxy]methyl]phenyl]-2-methoxyimino-N-methylacetamide], the “WLR control value (C.V.)” value in the experiment with Puccinia recondita (2 ppm), in the experiment with Puccinia recondita (10 ppm), in the experiment on Puccinia recondita (50 ppm) and in the experiment on Puccinia recondita (100 ppm) was 100% in each case. For the same compound, the “BPM control value (C.V.)” value in the experiment on Erysiphae graminis (2 ppm), with Erysiphae graminis (10 ppm), in the experiment on Erysiphae graminis (50 ppm) and in the experiment on Erysiphae graminis (100 ppm) was 100% each time. Besides, the “RCB control value (C.V.)” value in experiment [1] (2 ppm), in experiment [1] (10 ppm), in experiment [1] (50 ppm) and in experiment [1] (100 ppm) was 100% each time. Besides, the “TLB control value (C.V.)” value in the experiment with Phytophthora infestans (2 ppm) stood at 30%; in the experiment on Phytophthora infestans (10 ppm), 80%; with Phytophthora infestans (50 ppm), 100%; with Phytophthora infestans (100 ppm), 100%. Further, the “CGM control value (C.V.)” value in the experiment with Botrytis cinerae was 65%. Also, the “RSB control value (C.V.)” value with Rhizoctonia solani AG-1 (2 ppm) is recorded as 67%; in the experiment on Rhizoctonia solani AG-1 (10 ppm) it was 90%; with Rhizoctonia solani AG-1 (50 ppm), 98%; with Rhizoctonia solani AG-1 (100 ppm), 100%.

`CO/N=C(/C(=O)OC)c1ccccc1CON=C(C)c1ccc(C=C(Cl)Br)cc1` [Example 37, methyl-(E)-2-[[[[[2-[4-(2-bromo-2-chlorovinyl)phenyl](1-methyl)methylidene]amino]oxy]methyl]phenyl]-2-methoxyiminoacetate]: the “WLR control value (C.V.)” value in the experiment on Puccinia recondita (2 ppm), in the experiment with Puccinia recondita (10 ppm), with Puccinia recondita (50 ppm) and in the experiment with Puccinia recondita (100 ppm) was 100% in each case. In addition, the “BPM control value (C.V.)” value with Erysiphae graminis (2 ppm) is on record as 35%; with Erysiphae graminis (10 ppm) it was 90%; in the experiment on Erysiphae graminis (50 ppm) it was 93%; in the experiment with Erysiphae graminis (100 ppm), 95%. Further, the “RCB control value (C.V.)” value in experiment [1] (2 ppm) amounted to 75%; in experiment [1] (10 ppm), 90%; in experiment [1] (50 ppm) it was 100%; in experiment [1] (100 ppm), 100%. In addition, the “TLB control value (C.V.)” value with Phytophthora infestans (10 ppm) stood at 10%; in the experiment on Phytophthora infestans (50 ppm), 90%; in the experiment with Phytophthora infestans (100 ppm), 100%. For the same compound, the “CGM control value (C.V.)” value with Botrytis cinerae worked out at 50%. The “RSB control value (C.V.)” value with Rhizoctonia solani AG-1 (100 ppm) worked out at 90%.

In the case of `CNC(=O)/C(=N/OC)c1ccccc1CON=C(C)c1ccc(C=C(Cl)Br)cc1` [Example 38, (E)-2-[[[[[2-[4-(2-bromo-2-chlorovinyl)phenyl](1-methyl)methylidene]amino]oxy]methyl]phenyl]-2-methoxyimino-N-methylacetamide], the “WLR control value (C.V.)” value with Puccinia recondita (2 ppm), in the experiment on Puccinia recondita (10 ppm), in the experiment with Puccinia recondita (50 ppm) and with Puccinia recondita (100 ppm) was 100% throughout. Further, the “BPM control value (C.V.)” value is recorded as 95% in the experiment on Erysiphae graminis (2 ppm), 98% with Erysiphae graminis (10 ppm), 100% with Erysiphae graminis (50 ppm) and 100% with Erysiphae graminis (100 ppm). The “RCB control value (C.V.)” value in experiment [1] (2 ppm), in experiment [1] (10 ppm), in experiment [1] (50 ppm) and in experiment [1] (100 ppm) was 100% in each case. In addition, the “TLB control value (C.V.)” value stood at 30% in the experiment with Phytophthora infestans (2 ppm), 80% with Phytophthora infestans (10 ppm), 100% with Phytophthora infestans (50 ppm) and 100% with Phytophthora infestans (100 ppm). Besides, in the experiment on Botrytis cinerae, the “CGM control value (C.V.)” value is reported as 65%. For the same compound, the “RSB control value (C.V.)” value with Rhizoctonia solani AG-1 (2 ppm) is 80%; in the experiment on Rhizoctonia solani AG-1 (10 ppm), 95%; in the experiment on Rhizoctonia solani AG-1 (50 ppm) it was 98%; in the experiment with Rhizoctonia solani AG-1 (100 ppm), 100%.

Turning to `CO/N=C(/C(=O)OC)c1ccccc1COc1ccc(C=C(Cl)Cl)cc1Cl` [Example 39, methyl-(E)-2-(2-((2-chloro-4-(2,2-dichlorovinyl)phenoxy)methyl)phenyl)-2-methoxyiminoacetate], the pest or weed control at 2 ppm (in the experiment on Puccinia recondita (2 ppm); with Erysiphae graminis (2 ppm); in experiment [1]; with Phytophthora infestans; in the experiment on Rhizoctonia solani AG-1) was 100% in each case. Also, the pest or weed control at 10 ppm (with Puccinia recondita (10 ppm); with Erysiphae graminis (10 ppm); in experiment [1]; with Phytophthora infestans; with Rhizoctonia solani AG-1) was 100% throughout. Moreover, the pest or weed control at 50 ppm (in the experiment on Puccinia recondita (50 ppm); with Erysiphae graminis (50 ppm); in experiment [1]; with Phytophthora infestans; in the experiment with Rhizoctonia solani AG-1) was 100% in each case. Also, the pest or weed control at 100 ppm in the experiment on Puccinia recondita (100 ppm) is 100%; in the experiment on Erysiphae graminis (100 ppm) it was 100%; in experiment [1] it was 100%; in the experiment on Phytophthora infestans, 100%; with Botrytis cinerae (setting [2]) it was 75%; in the experiment on Rhizoctonia solani AG-1 it was 100%.

As to `CNC(=O)/C(=N/OC)c1ccccc1COc1ccc(C=C(Cl)Cl)cc1Cl` [Example 40, (E)-2-(2-((2-chloro-4-(2,2-dichlorovinyl)phenoxy)methyl)phenyl)-2-methoxyimino-N-methylacetamide], the pest or weed control at 2 ppm (in the experiment on Puccinia recondita (2 ppm); with Erysiphae graminis (2 ppm); in experiment [1]; in the experiment on Rhizoctonia solani AG-1) was 100% throughout. Besides, the pest or weed control at 10 ppm (in the experiment on Puccinia recondita (10 ppm); in the experiment with Erysiphae graminis (10 ppm); in experiment [1]; in the experiment with Rhizoctonia solani AG-1) was 100% throughout. Further, the pest or weed control at 50 ppm (with Puccinia recondita (50 ppm); in the experiment on Erysiphae graminis (50 ppm); in experiment [1]; in the experiment with Rhizoctonia solani AG-1) was 100% each time. The pest or weed control at 100 ppm was 100% with Puccinia recondita (100 ppm); 100% in the experiment on Erysiphae graminis (100 ppm); 100% in experiment [1]; 30% in the experiment with Phytophthora infestans; 10% in the experiment on Botrytis cinerae (setting [2]); 100% in the experiment on Rhizoctonia solani AG-1.

With `CO/N=C(/C(=O)OC)c1ccccc1COc1ccc(C=C(Cl)Cl)cc1C` [Example 41, methyl-(E)-2-(2-((4-(2,2-dichlorovinyl)-2-methylphenoxy)methyl)phenyl)-2-methoxyiminoacetate], the pest or weed control at 2 ppm (with Puccinia recondita (2 ppm); in the experiment on Erysiphae graminis (2 ppm); in experiment [1]; in the experiment on Phytophthora infestans; in the experiment on Rhizoctonia solani AG-1) was 100% each time. For the same compound, the pest or weed control at 10 ppm (with Puccinia recondita (10 ppm); in the experiment on Erysiphae graminis (10 ppm); in experiment [1]; in the experiment with Phytophthora infestans; with Rhizoctonia solani AG-1) was 100% in each case. Moreover, the pest or weed control at 50 ppm in the experiment on Puccinia recondita (50 ppm) was determined as 100%; with Erysiphae graminis (50 ppm), 100%; in experiment [1] it was 100%; with Phytophthora infestans, 100%; in the experiment on Botrytis cinerae (Botrytis, 50 ppm, read-out: CGM control value (C.V.)) it was 75%; in the experiment with Rhizoctonia solani AG-1, 100%. Besides, the pest or weed control at 100 ppm stood at 100% with Puccinia recondita (100 ppm); 100% in the experiment with Erysiphae graminis (100 ppm); 100% in experiment [1]; 100% in the experiment with Phytophthora infestans; 90% in the experiment with Botrytis cinerae (setting [2]); 100% in the experiment on Rhizoctonia solani AG-1.

On to `CNC(=O)/C(=N/OC)c1ccccc1COc1ccc(C=C(Cl)Cl)cc1C` [Example 42, (E)-2-(2-((4-(2,2-dichlorovinyl)-2-methylphenoxy)methyl)phenyl)-2-methoxyimino-N-methylacetamide], for which the pest or weed control at 2 ppm (with Puccinia recondita (2 ppm); in the experiment with Erysiphae graminis (2 ppm); in experiment [1]; in the experiment with Rhizoctonia solani AG-1) was 100% in each case. The pest or weed control at 10 ppm (in the experiment on Puccinia recondita (10 ppm); with Erysiphae graminis (10 ppm); in experiment [1]; with Rhizoctonia solani AG-1) was 100% throughout. The pest or weed control at 50 ppm is 100% in the experiment on Puccinia recondita (50 ppm); 100% with Erysiphae graminis (50 ppm); 100% in experiment [1]; 70% in the experiment with Phytophthora infestans; 100% in the experiment with Rhizoctonia solani AG-1. Besides, the pest or weed control at 100 ppm with Puccinia recondita (100 ppm) is 100%; in the experiment on Erysiphae graminis (100 ppm), 100%; in experiment [1], 100%; with Phytophthora infestans, 95%; with Botrytis cinerae (setting [2]) it was 0%; with Rhizoctonia solani AG-1, 100%.
